Test results taken from patent US20120189677A1, “FORMULATIONS” (priority 2011, published 2012).
Read-outs that look alike come from different tables or passages of the source.

Legend:
[1] = Turbidity of surfactant added to standard maltodextrin/lipid emulsion at room temperature (Example 1); format: physicochemical; conditions: surfactant 7% w/w in emulsion of 2% C* Dry MD 01958 maltodextrin and 1% S-75 lipid
[2] = approximate average of manufacturer and literature values; cited from earlier work
[3] = HLB values of surfactants (manufacturer/literature or equation); format: physicochemical; conditions: from HLB=20[1-(S/A)], S 45.5, A 276
[4] = Clarity of surfactant/lipid compositions with or without maltodextrin (Example 2); format: physicochemical; conditions: surfactant at % given in row, S-75 lipid, low temperature process; for Clarity with maltodextrin (2%): 2% maltodextrin; for Clarity without maltodextrin: no maltodextrin
[5] = Particle size analysis (FIG. 3); format: physicochemical; conditions: Brij35P 7.0% w/w, S-75 1% w/w, maltodextrin 2% w/w; 25:2 dilution

Row | Substance | Turbidity (FNU) [1] [FNU] | HLB [2] | also measured
1 | Nonoxynol-9 | 8.87 | 12.9 | –
2 | Octoxynol-40 | >150 | 17.9 | –
3 | Polysorbate-20 [Polysorbate 20] | – | – | HLB [3]: 16.7; Clarity with maltodextrin (2%) [4]: 59.5 FNU; Clarity without maltodextrin [4]: 79.5 FNU
4 | Laureth-23 [Brij 35P] | – | – | Clarity with maltodextrin (2%) [4]: 128.1 FNU; Clarity without maltodextrin [4]: 184 FNU; polydispersity [5]: 0.625; principal/dominant particle size [5]: 8.68 nm
5 | Nonoxynol-10 | 8.29 | 13.6 | –
6 | Octoxynol-5 | >150 | 10.4 | –
7 | Octoxynol-9 | 7.75 | – | –
8 | Octoxynol-16 | 7.55 | – | –
9 | Nonoxynol-40 | >150 | 17.8 | –
10 | Octoxynol-12 | 4.32 | 14.5 | –
11 | Octoxynol-30 | >150 | 17.1 | –
